The record followed here is EP0014443B1, “Dilutable alkyl-benzimidazolecarbamate formulation, process for its preparation and its use as biocide” (RIEDEL-DE HAEN AKTIENGESELLSCHAFT, priority 1979, dated 1980).

Converted amounts (≈) assume the structure as drawn. Like-named read-outs stand apart in the source and are kept apart here.

Data set [1] concerns holzverblauende Pilze. The data set is described as follows: Münden strip method (Mündener Streifenmethode) on wood against blue-stain fungi. The settings on record: in usual wood preservative formulation (alkyd resin, Testbenzin 60); 25 GT product of Beispiel 1 in 1000 GT, or 0,25 % BCM as comparison. An excerpt: 25 GT eines Produktes gemäß Beispiel 1 werden zu 975 GT einer üblichen Holzschutzmittelformulierung gegeben, die zusammengesetzt ist aus 140 GT eines handelsüblichen Alkyldharzes, 4 GT Zinknaphthenat als Trockner, 4 GT eines handelsüblichen Hautverhütungsmittels, 30 GT Butyldiglykol und 797 GT Testbenzin 60.
Die Wirksamkeit der so biozid ausgerüsteten Holzschutzmittelformulierung gegen holzverblauende Pilze wird nach der Mündener Streifenmethode [H. Butin, Farbe und Lack, 71 (1965), 373] geprüft. Es ergibt sich eine bewuchsfreie Eindringtiefe von 3 bis 4 mm.
Zum Vergleich wird die oben angegebene übliche Holzschutzmittelformulierung mit 0,25 % Benzimidazolcarbaminsäuremethylester versetzt und unter gleichen Bedingungen geprüft. Es werden nur Eindringtiefen von 0,5 mm festgestellt.

Data set [2] is described as follows: Solubility in solvents. It is filed as physicochemical. Conditions: read-out: Löslichkeit. The source says:
Zum Vergleich : Die Löslichkeit von BCM beträgt in Wasser 6 ppm und in Butanol 600 ppm.

Take `COC(=O)Nc1nc2ccccc2[nH]1` [II, Benzimidazolcarbaminsäuremethylester]: the “bewuchsfreie Eindringtiefe” value in data set [1] was 0,5 mm. Also, the solubility in data set [2] (organic solvent or mixture, in Butanol) is 600 µg/mL (≈ 3140 µM); in data set [2] (water, in Wasser), 6 µg/mL (≈ 31.4 µM).
